In ChEMBL document CHEMBL3991601, “The target landscape of clinical kinase drugs” (Science, 2017):
Counter-ions that a name gives are not always drawn. Calls of active or inactive are those of the source. Rule as the data show it, for most assays here: actives have a measured Kd and inactives only a lower limit.

What was measured:
[1] = biological target: Mitogen-activated protein kinase 7 (Homo sapiens, UniProt Q13164)
[2] = biological target: AP2-associated protein kinase 1 (Homo sapiens, UniProt Q2M2I8)
[3] = biological target: ATP-dependent RNA helicase DDX3X (Homo sapiens, UniProt O00571)
[4] = biological target: T1, Mitogen-activated protein kinase kinase kinase 5 (Homo sapiens, UniProt Q99683)
T1 sequence (Q99683 whole entry): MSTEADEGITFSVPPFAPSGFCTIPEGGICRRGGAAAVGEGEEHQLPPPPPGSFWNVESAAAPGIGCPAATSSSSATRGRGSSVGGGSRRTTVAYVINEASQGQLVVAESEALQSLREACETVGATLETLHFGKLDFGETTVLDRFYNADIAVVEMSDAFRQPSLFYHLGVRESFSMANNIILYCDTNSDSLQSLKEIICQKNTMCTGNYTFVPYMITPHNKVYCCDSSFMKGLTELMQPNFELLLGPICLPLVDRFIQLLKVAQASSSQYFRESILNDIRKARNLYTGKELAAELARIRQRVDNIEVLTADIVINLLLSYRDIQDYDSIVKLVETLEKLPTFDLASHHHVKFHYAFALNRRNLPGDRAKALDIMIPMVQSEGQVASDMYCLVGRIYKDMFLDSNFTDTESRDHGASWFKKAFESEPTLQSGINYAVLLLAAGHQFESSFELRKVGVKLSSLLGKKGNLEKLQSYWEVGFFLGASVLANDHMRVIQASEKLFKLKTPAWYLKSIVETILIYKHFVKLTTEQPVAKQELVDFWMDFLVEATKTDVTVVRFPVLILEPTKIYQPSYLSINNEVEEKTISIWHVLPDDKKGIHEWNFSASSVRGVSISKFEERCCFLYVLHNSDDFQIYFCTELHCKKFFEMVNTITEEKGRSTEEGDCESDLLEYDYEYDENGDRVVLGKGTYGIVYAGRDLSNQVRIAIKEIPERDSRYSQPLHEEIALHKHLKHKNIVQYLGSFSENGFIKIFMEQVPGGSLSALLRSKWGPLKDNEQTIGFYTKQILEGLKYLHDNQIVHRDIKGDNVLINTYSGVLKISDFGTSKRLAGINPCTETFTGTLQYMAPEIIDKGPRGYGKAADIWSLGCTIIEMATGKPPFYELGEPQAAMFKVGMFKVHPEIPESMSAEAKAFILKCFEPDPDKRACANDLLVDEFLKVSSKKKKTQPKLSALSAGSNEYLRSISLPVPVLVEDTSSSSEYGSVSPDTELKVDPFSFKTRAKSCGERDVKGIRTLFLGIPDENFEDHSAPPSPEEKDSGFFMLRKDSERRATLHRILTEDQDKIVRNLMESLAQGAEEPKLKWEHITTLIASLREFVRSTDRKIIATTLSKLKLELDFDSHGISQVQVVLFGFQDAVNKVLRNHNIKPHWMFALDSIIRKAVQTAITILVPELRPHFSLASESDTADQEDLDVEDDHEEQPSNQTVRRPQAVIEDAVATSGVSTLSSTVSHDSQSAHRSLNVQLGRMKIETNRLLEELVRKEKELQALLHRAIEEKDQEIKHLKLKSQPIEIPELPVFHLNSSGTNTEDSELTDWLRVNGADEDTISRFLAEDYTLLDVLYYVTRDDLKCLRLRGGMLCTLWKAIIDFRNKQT

Activin receptor type-1 = biological target: T2, Activin receptor type-1 (Homo sapiens, UniProt Q04771)
T2 sequence (Q04771 whole entry): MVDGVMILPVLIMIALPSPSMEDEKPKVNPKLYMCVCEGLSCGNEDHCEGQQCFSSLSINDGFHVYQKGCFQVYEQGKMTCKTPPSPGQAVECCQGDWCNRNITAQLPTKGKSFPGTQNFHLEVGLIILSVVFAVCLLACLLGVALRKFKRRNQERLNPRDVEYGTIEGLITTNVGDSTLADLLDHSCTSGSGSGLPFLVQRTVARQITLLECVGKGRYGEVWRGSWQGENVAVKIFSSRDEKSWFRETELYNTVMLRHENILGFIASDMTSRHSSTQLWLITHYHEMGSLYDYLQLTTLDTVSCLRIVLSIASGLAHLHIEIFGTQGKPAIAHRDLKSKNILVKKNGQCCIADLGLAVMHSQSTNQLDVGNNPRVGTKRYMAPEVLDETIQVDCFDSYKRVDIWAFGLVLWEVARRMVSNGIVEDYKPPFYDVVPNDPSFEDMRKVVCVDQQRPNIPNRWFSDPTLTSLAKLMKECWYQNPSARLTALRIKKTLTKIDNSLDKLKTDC

[5] = biological target: Tyrosine-protein kinase Lyn (Homo sapiens, UniProt P07948)
[6] = biological target: T3, Mitogen-activated protein kinase 15 (Homo sapiens, UniProt Q8TD08)
T3 sequence (Q8TD08 whole entry): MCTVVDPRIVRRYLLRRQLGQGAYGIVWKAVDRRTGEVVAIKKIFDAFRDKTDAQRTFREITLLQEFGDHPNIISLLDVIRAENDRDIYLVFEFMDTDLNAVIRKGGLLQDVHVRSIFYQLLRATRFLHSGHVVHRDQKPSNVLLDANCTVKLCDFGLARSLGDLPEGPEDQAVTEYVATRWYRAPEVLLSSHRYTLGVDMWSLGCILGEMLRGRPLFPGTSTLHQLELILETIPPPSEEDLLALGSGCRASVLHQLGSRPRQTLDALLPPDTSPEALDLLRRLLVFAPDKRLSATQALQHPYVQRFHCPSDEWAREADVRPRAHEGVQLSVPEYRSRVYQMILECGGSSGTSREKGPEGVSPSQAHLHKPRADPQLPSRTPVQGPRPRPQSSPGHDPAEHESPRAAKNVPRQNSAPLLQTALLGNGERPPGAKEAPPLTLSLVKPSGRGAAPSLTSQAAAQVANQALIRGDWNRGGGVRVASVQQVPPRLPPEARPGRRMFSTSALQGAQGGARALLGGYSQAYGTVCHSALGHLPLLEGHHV

Measured: Kd
Also: in the data inactive means no Kd found up to 30 µM.

Chain of Tyrosine-protein kinase Lyn (P07948 whole entry): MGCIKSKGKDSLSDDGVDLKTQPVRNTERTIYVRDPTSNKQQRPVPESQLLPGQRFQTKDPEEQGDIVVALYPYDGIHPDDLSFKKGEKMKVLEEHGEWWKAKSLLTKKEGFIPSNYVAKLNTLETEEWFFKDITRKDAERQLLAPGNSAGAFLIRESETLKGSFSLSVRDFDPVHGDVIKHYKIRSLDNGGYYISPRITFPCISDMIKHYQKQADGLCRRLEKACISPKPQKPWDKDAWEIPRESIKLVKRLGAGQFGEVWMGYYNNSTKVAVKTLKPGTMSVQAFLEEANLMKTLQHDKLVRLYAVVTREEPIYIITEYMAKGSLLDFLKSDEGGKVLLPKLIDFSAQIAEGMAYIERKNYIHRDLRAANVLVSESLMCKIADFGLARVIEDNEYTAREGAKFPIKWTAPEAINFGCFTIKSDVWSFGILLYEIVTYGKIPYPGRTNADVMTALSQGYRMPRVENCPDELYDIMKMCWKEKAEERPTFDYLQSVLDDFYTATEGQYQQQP
Chain of AP2-associated protein kinase 1 (Q2M2I8 whole entry): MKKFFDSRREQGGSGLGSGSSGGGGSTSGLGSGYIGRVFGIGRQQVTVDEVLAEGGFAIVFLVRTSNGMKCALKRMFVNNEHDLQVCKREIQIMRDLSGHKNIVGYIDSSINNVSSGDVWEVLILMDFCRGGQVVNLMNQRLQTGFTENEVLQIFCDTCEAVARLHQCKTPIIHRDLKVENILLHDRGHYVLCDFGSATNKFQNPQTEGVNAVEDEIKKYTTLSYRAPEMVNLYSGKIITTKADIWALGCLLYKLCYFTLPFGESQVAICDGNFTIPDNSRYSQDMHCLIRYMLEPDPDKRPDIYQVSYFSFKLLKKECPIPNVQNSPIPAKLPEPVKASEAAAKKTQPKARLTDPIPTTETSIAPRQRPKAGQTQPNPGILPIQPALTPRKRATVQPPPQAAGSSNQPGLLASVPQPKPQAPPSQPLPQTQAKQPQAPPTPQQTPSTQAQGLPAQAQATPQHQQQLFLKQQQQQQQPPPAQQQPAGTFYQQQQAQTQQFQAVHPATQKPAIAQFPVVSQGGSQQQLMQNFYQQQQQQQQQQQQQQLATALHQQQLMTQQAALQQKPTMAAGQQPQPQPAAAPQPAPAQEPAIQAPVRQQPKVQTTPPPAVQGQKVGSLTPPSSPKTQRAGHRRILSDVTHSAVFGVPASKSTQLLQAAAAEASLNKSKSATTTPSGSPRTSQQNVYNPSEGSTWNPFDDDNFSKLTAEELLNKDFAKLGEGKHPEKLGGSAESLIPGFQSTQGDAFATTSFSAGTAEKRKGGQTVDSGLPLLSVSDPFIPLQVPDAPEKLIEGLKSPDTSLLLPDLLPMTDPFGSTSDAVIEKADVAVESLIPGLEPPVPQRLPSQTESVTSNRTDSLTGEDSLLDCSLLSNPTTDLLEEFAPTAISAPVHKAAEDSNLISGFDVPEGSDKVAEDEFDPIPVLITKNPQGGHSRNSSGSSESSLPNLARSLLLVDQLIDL
Chain of ATP-dependent RNA helicase DDX3X (O00571 whole entry): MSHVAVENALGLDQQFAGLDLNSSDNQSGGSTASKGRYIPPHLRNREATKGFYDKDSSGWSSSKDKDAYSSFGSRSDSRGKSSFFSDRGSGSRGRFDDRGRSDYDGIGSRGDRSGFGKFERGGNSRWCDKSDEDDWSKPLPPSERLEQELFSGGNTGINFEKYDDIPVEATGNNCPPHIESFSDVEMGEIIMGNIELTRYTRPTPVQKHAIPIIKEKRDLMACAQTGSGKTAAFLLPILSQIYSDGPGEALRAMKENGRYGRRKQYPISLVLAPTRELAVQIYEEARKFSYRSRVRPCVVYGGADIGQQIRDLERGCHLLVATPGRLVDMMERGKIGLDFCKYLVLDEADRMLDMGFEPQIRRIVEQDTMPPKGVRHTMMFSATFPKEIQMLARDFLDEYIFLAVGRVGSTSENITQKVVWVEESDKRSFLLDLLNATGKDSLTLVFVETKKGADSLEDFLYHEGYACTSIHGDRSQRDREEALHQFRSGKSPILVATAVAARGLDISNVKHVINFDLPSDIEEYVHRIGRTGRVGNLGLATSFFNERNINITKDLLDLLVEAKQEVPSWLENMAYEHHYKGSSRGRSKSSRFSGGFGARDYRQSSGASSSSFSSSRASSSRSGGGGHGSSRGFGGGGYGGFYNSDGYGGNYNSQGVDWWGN
Chain of Mitogen-activated protein kinase 7 (Q13164 whole entry): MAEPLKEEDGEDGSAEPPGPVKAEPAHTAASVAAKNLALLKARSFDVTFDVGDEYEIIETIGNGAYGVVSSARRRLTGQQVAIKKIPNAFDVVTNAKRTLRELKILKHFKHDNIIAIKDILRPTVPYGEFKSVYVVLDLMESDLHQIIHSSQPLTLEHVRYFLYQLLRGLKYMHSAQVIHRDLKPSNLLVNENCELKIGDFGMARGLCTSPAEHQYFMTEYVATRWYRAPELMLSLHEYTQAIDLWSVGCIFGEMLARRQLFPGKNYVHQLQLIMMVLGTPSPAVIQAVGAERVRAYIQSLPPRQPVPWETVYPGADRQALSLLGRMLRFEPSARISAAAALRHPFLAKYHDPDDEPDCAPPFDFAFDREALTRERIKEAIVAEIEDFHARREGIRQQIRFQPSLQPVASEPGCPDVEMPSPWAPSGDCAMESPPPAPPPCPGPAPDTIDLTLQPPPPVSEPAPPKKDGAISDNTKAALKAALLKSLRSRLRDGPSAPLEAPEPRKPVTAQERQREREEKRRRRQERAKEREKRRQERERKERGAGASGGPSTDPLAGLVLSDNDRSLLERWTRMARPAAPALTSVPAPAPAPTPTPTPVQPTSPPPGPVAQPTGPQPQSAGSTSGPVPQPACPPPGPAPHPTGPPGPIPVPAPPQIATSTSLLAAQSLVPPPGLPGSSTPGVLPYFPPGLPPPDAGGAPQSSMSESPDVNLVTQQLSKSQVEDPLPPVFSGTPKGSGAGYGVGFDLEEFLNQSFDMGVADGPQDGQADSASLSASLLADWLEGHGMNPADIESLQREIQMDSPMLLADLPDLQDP

C[C@H]1CNCCCN1S(=O)(=O)c1cccc2cncc(F)c12
inactive: [1] > 30 µM | [2] > 30 µM | [3] > 30 µM | [4] > 30 µM | Activin receptor type-1 > 30 µM | [5] > 30 µM

CC(=O)c1cnc2ccc(-c3cc(Cl)c(O)c(Cl)c3)nc2c1N[C@H]1CC[C@H](CN(C)C)CC1
active: [6] 0.09 µM | [4] 0.878 µM | Activin receptor type-1 0.222 µM | [5] 0.121 µM
inactive: [1] > 30 µM | [3] > 30 µM

C=CC(=O)N1CCC[C@H](n2c(=O)n(-c3ccc(Oc4ccccc4)cc3)c3c(N)ncnc32)C1
0.006 µM: [5]
inactive: [1] > 30 µM | [2] > 30 µM | [6] > 30 µM | [3] > 30 µM | [4] > 30 µM | Activin receptor type-1 > 30 µM

Cc1nc(NC(=O)N2CCC[C@H]2C(N)=O)sc1-c1ccnc(C(C)(C)C(F)(F)F)c1 [ALPELISIB]
inactive: [1] > 30 µM | [2] > 30 µM | [6] > 30 µM | [3] > 30 µM | [4] > 30 µM | Activin receptor type-1 > 30 µM | [5] > 30 µM

Cc1csc(-c2nnc(Nc3ccc(Oc4ncccc4-c4ccnc(N)n4)cc3)c3ccccc23)c1 [AMG-900]
active: [4] 2.79 µM
inactive: [1] > 30 µM | [2] > 30 µM | [6] > 30 µM | [3] > 30 µM | Activin receptor type-1 > 30 µM | [5] > 30 µM

COc1cc([C@@H]2c3cc4c(cc3[C@H](O)[C@H]3COC(=O)[C@@H]23)OCO4)cc(OC)c1OC [AXL-1717]
inactive: [1] > 30 µM | [2] > 30 µM | [6] > 30 µM | [3] > 30 µM | [4] > 30 µM | Activin receptor type-1 > 30 µM | [5] > 30 µM

NC(=O)Nc1cc(-c2cccc(F)c2)sc1C(=O)N[C@H]1CCCNC1 [AZD-7762]
inactive: [1] > 30 µM | [6] > 30 µM | [3] > 30 µM | [4] > 30 µM | Activin receptor type-1 > 30 µM
active: [2] 0.073 µM | [5] 0.48 µM

Cn1cnc2c(F)c(Nc3ccc(Br)cc3F)c(C(=O)NOCCO)cc21 [BINIMETINIB]
inactive: [1] > 30 µM | [2] > 30 µM | [6] > 30 µM | [3] > 30 µM | [4] > 30 µM | Activin receptor type-1 > 30 µM | [5] > 30 µM

CCS(=O)(=O)N1CCN(c2ccc(Nc3ncc(C(N)=O)c(NC4CC4)n3)cc2)CC1 [Cerdulatinib Hydrochloride]
active: [2] 0.001 µM
inactive: [1] > 30 µM | [6] > 30 µM | [3] > 30 µM | Activin receptor type-1 > 30 µM | [5] > 30 µM

CC(C)(C)c1nc(-c2cccc(NS(=O)(=O)c3c(F)cccc3F)c2F)c(-c2ccnc(N)n2)s1 [DABRAFENIB]
inactive: [1] > 30 µM | [2] > 30 µM | [6] > 30 µM | [3] > 30 µM

Cn1cc(C2=C(c3cn(C4CCN(Cc5ccccn5)CC4)c4ccccc34)C(=O)NC2=O)c2ccccc21 [ENZASTAURIN]
inactive: [3] > 30 µM

Cc1nc2cc(-n3ncc(C(=O)c4cc5ccccc5[nH]4)c3N)ccc2[nH]1 [FGFR INHIBITOR DEBIO 1347]
inactive: [1] > 30 µM | [2] > 30 µM | [6] > 30 µM | [3] > 30 µM | [4] > 30 µM | Activin receptor type-1 > 30 µM | [5] > 30 µM

O=C(Nc1nc2cccc(-c3ccc(CN4CCS(=O)(=O)CC4)cc3)n2n1)C1CC1 [FILGOTINIB]
inactive: [1] > 30 µM | [6] > 30 µM | [3] > 30 µM | [4] > 30 µM | Activin receptor type-1 > 30 µM | [5] > 30 µM
active: [2] 4.99 µM

CN(C[C@@H]1COCCO1)S(=O)(=O)Nc1ccc2ccc3ncc(-c4cnn(C)c4)cc3c(=O)c2c1 [MK-2461]
active: [2] 3.65 µM
inactive: [1] > 30 µM | [6] > 30 µM | [3] > 30 µM | [4] > 30 µM | Activin receptor type-1 > 30 µM | [5] > 30 µM

Cc1[nH]c(/C=C2\C(=O)Nc3ccccc32)c(C)c1CCC(=O)O [ORANTINIB]
inactive: [1] > 30 µM | [6] > 30 µM | [3] > 30 µM | [4] > 30 µM | Activin receptor type-1 > 30 µM
active: [2] 1.17 µM

CCOc1cc2ncc(C#N)c(Nc3ccc(F)c(Cl)c3)c2cc1NC(=O)/C=C/CN(C)C [PELITINIB]
inactive: [1] > 30 µM | [2] > 30 µM | [6] > 30 µM | [3] > 30 µM | [4] > 30 µM | Activin receptor type-1 > 30 µM | [5] > 30 µM

CCCCCCCCCCCCCCCCCCOP(=O)([O-])OC1CC[N+](C)(C)CC1 [PERIFOSINE]
inactive: [1] > 30 µM | [2] > 30 µM | [6] > 30 µM | [3] > 30 µM | [4] > 30 µM | Activin receptor type-1 > 30 µM | [5] > 30 µM

Cc1nc(Nc2n[nH]c3c2CN(C(=O)N[C@H](CN(C)C)c2ccccc2)C3(C)C)c2sccc2n1 [PF-03758309]
active: [1] 3.89 µM | [2] 3.04 µM
inactive: [6] > 30 µM | [3] > 30 µM | [4] > 30 µM | Activin receptor type-1 > 30 µM | [5] > 30 µM

N#CC[C@H](C1CCCC1)n1cc(-c2ncnc3[nH]ccc23)cn1 [RUXOLITINIB]
inactive: [3] > 30 µM

O=c1[nH]ccc2cc(OC3CCNCC3)ccc12 [SAR-407899 FREE BASE]
inactive: [1] > 30 µM | [6] > 30 µM | [3] > 30 µM | [4] > 30 µM | Activin receptor type-1 > 30 µM | [5] > 30 µM
active: [2] 0.012 µM

Cn1ncc(Cl)c1-c1cc(C(=O)N[C@H](CN)Cc2ccc(F)c(F)c2)oc1Cl [UPROSERTIB]
inactive: [2] > 30 µM | [6] > 30 µM | [3] > 30 µM | [4] > 30 µM | Activin receptor type-1 > 30 µM | [5] > 30 µM
